Experimental data as given in patent US10365269B2, “System and methods for detecting ribosome inhibition” (priority 2015, dated 2019).
“Also recorded” adds a separate entry of the source.

Assays:
Format in all cases: cell-based
[1] = target: T1, TetR (Escherichia coli, UniProt P04483); test: Recovery of GFPuv fluorescence in E. coli DH5α containing pSH3-KF; details: saturating ATC
T1 construct: expressed in transfected cells; host or cells: E. coli DH5α transformed with pSH3-KF (tetR amplified from pSR26_2)
Procedure: (§1) All cell density and fluorescence measurements were taken in triplicate. 96-well culture plates (1 mL LB per well) with appropriate concentrations of necessary antibiotics and aminoglycoside were inoculated 1:100 from a saturated overnight liquid culture and allowed to grow for 48 hours at 37° C., 200 rpm shaking. For cell density assays, 40 μL of sample was taken from each well, diluted 5-fold, and OD600 was measured by microplate reader. The OD600 of the original culture was calculated by multiplying the reading by the dilution factor (Melançon et al., 2009, Bioorg. Med. Chem. Lett. 19:3845-3847). For cell pellet fluorescence imaging, cells were pelleted by centrifugation (4,000×g, 15 minutes, 4° C.) and the supernatant was decanted completely. […] For fluorescence quantification, cell pellets were resuspended in 1 mL of ¼×Ringer's solution (30.75 mM NaCl, 1.2 mM, KCl, 1.5 mM CaCl2, pH 7.3-7.4), 200 μL of cells from each well were transferred to black 96-well plates, and GFP fluorescence was measured (excitation=395 nm, bandwidth=9 nm; emission=509 nm, bandwidth=15 nm). Fluorescence intensities were calculated as fluorescence/OD600 of the sample minus fluorescence/OD600 of a sample of a non-GFP-expressing E. coli strain parental to the strain being analyzed in order to correct for both cell density and E. coli auto-fluorescence. […]

[2] = system: O-ribosome; test: O-ribosome inhibition fluorescence assay in E. coli SH431 (pSH6-KF, pRRSH2-U1406A); details: for detection of O-ribosome inhibition (fluorescence signal): E. coli SH431, U1406A 16S rRNA, aminoglycoside 0-500 μM; for relative potency as ribosome inhibitor (rank among four compounds): printed order: gentamicins, G418 and hygromycin B, kanamycin A
Procedure: (§2) All cell density and fluorescence measurements were taken in triplicate. 96-well culture plates (1 mL LB per well) with appropriate concentrations of necessary antibiotics and aminoglycoside were inoculated 1:100 from a saturated overnight liquid culture and allowed to grow for 48 hours at 37° C., 200 rpm shaking. For cell density assays, 40 μL of sample was taken from each well, diluted 5-fold, and OD600 was measured by microplate reader. The OD600 of the original culture was calculated by multiplying the reading by the dilution factor (Melançon et al., 2009, Bioorg. Med. Chem. Lett. 19:3845-3847). For cell pellet fluorescence imaging, cells were pelleted by centrifugation (4,000×g, 15 minutes, 4° C.) and the supernatant was decanted completely. The underside of the plate was illuminated at 365 nm using an ultraviolet handheld lamp and photgraphed with an 8 megapixel digital camera. For fluorescence quantification, cell pellets were resuspended in 1 mL of ¼×Ringer's solution (30.75 mM NaCl, 1.2 mM, KCl, 1.5 mM CaCl2, pH 7.3-7.4), 200 μL of cells from each well were transferred to black 96-well plates, and GFP fluorescence was measured (excitation=395 nm, bandwidth=9 nm; emission=509 nm, bandwidth=15 nm). Fluorescence intensities were calculated as fluorescence/OD600 of the sample minus fluorescence/OD600 of a sample of a non-GFP-expressing E. coli strain parental to the strain being analyzed in order to correct for both cell density and E. coli auto-fluorescence.
(§3) To extend the approach to a system with a different aminoglycoside resistance mutation, prrnC-sacB was replaced with pRRSH2-U1406A (see Section 2.2.2 for vector construction) in E. coli SQ380 (E. coli SH424), which was then transformed with pSH6-KF, resulting in the detection strain E. coli SH431. E. coli SH431 was used to conduct ribosome inhibition assays identical to those performed with E. coli SH399. Dose-dependent fluorescence responses by E. coli SH431 were observed when treated with four of these compounds as determined by plate reader fluorescence assays (see section 1.6 for experimental details), including two to which E. coli SH399 was not resistant and therefore could not produce a response. (FIG. 4B and FIG. 20).

[3] = system: O-ribosome; test: O-ribosome inhibition fluorescence assay in E. coli SH399 (pSH6-KF, pRRSH2-A1408G); details: for detection of O-ribosome inhibition (fluorescence signal): E. coli SH399, A1408G 16S rRNA, aminoglycoside 0-500 μM, 48 h; for dose-dependent fluorescence response pattern: E. coli SH399, increasing aminoglycoside concentrations; for relative ribosome inhibition activity (rank among ten compounds) / fluorescence at drug concentrations beyond those that give the peak response: E. coli SH399; for relative ribosome inhibition activity (rank among ten compounds): printed order: sisomicin, gentamicins, neomycin B, paromomycin, tobramycin, amikacin, ribostamycin, apramycin, kanamycin A, neamine
Procedure: as §2
Dose-dependent fluorescence responses by E. coli SH399 was observed when treated with five of these compounds as determined by plate reader fluorescence assays (see section 1.6 for experimental details). (FIG. 4A and FIG. 20).

[4] = system: E. coli SH431; test: Cell density (OD600) growth assay of E. coli SH431
Procedure: as §2
as §3, with “E. coli SH431 was used to conduct ribosome inhibition assays identical to those performed with E. coli SH399.” left out, “(FIG. 4B and FIG. 20).” left out

[5] = system: E. coli SH430; test: Cell viability (OD600) assay of E. coli SH430 (pRRSH2, wild-type 16S rRNA)
Excerpt: (§4) E. coli SQ380 was transformed with pRRSH2-A1408G; and prrnC-sacB was removed by sucrose counterselection, resulting in E. coli SH386. As a control, E. coli SQ380 was also transformed with pRRSH2; and prrnC-sacB was removed by sucrose counterselection, resulting in E. coli SH430.

[6] = system: E. coli SH386; test: Cell viability (OD600) assay of E. coli SH386 (pRRSH2-A1408G)
Excerpt: as §4

[7] = system: O-ribosome; test: Ribosome inhibition fluorescence assay in E. coli SH391 (SH386 with pSH3-KF); details: E. coli SH391, kanamycin 0-500 μM
Procedure: All cell density and fluorescence measurements were taken in triplicate. 96-well culture plates (1 mL LB per well) with appropriate concentrations of necessary antibiotics and aminoglycoside were inoculated 1:100 from a saturated overnight liquid culture and allowed to grow for 48 hours at 37° C., 200 rpm shaking. For cell density assays, 40 μL of sample was taken from each well, diluted 5-fold, and OD600 was measured by microplate reader. The OD600 of the original culture was calculated by multiplying the reading by the dilution factor (Melançon et al., 2009, Bioorg. Med. Chem. Lett. 19:3845-3847). For cell pellet fluorescence imaging, cells were pelleted by centrifugation (4,000×g, 15 minutes, 4° C.) and the supernatant was decanted completely. […] For fluorescence quantification, cell pellets were resuspended in 1 mL of ¼×Ringer's solution (30.75 mM NaCl, 1.2 mM, KCl, 1.5 mM CaCl2, pH 7.3-7.4), 200 μL of cells from each well were transferred to black 96-well plates, and GFP fluorescence was measured (excitation=395 nm, bandwidth=9 nm; emission=509 nm, bandwidth=15 nm). Fluorescence intensities were calculated as fluorescence/OD600 of the sample minus fluorescence/OD600 of a sample of a non-GFP-expressing E. coli strain parental to the strain being analyzed in order to correct for both cell density and E. coli auto-fluorescence.

[8] = system: E. coli SH434; test: Growth inhibition assay of aminoglycoside-sensitive E. coli SH434 (pSH6-KF, pRRSH2)
Procedure: as §1

[9] = system: E. coli SH399; test: Cell density (OD600) growth assay of E. coli SH399; details: E. coli SH399, concentrations beyond peak fluorescence response
Procedure: as §1

T1 sequence (P04483 whole entry): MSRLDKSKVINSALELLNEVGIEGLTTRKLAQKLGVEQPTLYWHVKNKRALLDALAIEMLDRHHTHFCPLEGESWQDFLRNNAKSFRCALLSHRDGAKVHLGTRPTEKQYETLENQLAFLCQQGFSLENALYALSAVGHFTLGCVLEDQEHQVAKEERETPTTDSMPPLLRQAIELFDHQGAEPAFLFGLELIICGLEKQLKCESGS

Cc1c2c(c(O)c3c(O)cccc13)C(=O)[C@]1(O)C(=O)C(C(N)=O)=C(O)[C@@H](N(C)C)[C@@H]1C2 [anhydrotetracycline]
fluorescence level relative to the gfp-uv/tetR-expressing strain [1]: 106.6%±1.2%

CN[C@@H]1[C@@H](O[C@H]2O[C@H](CO)[C@@H](N)[C@H](O)[C@H]2O)OC2C[C@@H](N)[C@@H](O[C@H]3[C@H](O)[C@@H](O)[C@H](N)C[C@@H]3N)OC2[C@@H]1O (stereo partly drawn) [apramycin]
detection of O-ribosome inhibition (fluorescence signal) [2]: lack of signal | detection of O-ribosome inhibition (fluorescence signal) [3]: able to detect O-ribosome inhibition | dose-dependent fluorescence response pattern [3]: more gradual dose-dependent fluorescence increases | resistance of SH431 conferred by the U1406A mutation [4]: inability of the U1406A mutation to confer resistance

NC[C@H]1O[C@H](O[C@H]2[C@H](O)[C@@H](O[C@H]3O[C@H](CO)[C@@H](O)[C@H](N)[C@H]3O)[C@H](N)C[C@@H]2N)[C@H](O)[C@@H](O)[C@@H]1O [kanamycin, kanamycin A]
detection of O-ribosome inhibition (fluorescence signal) [2]: able to detect O-ribosome inhibition | relative potency as ribosome inhibitor (rank among four compounds) ([2]; E. coli SH431): least potent | growth inhibition ([5]; E. coli SH430, 10 μM kanamycin, 24 hours): significant growth inhibition | concentrations at which the strain cannot survive ([5]; E. coli SH430, 24 hours): above 10 μM | detection of O-ribosome inhibition (fluorescence signal) [3]: able to detect O-ribosome inhibition | dose-dependent fluorescence response pattern [3]: robust dose-dependent increase in fluorescence; also recorded: more gradual dose-dependent fluorescence increases | concentration up to which the strain is resistant (highest concentration tested) ([6]; E. coli SH386, A1408G): up to 500 μM | growth inhibition ([6]; E. coli SH386, any kanamycin concentration tested (up to 500 μM), 24 hours): no growth inhibition | increase in fluorescence [7]: ~50% | maximum induction of fluorescence ([7]; strong background fluorescence): 1.6 fold

NC[C@H]1O[C@H](O[C@H]2[C@H](O)[C@@H](O)[C@H](N)C[C@@H]2N)[C@H](N)[C@@H](O)[C@@H]1O [neamine]
growth inhibition activity [8]: very weak | relative ribosome inhibition activity (rank among ten compounds) ([3]; listed as Neamine): very weak

NC[C@@H]1O[C@H](O[C@H]2[C@@H](O)[C@H](O[C@@H]3[C@@H](O)[C@H](N)C[C@H](N)[C@H]3O[C@H]3O[C@H](CN)[C@@H](O)[C@H](O)[C@H]3N)O[C@@H]2CO)[C@H](N)[C@@H](O)[C@@H]1O [neomycin, neomycin B]
detection of O-ribosome inhibition (fluorescence signal) [2]: lack of signal | fluorescence at drug concentrations beyond those that give the peak response [3]: fluorescence decreases significantly | detection of O-ribosome inhibition (fluorescence signal) [3]: able to detect O-ribosome inhibition | dose-dependent fluorescence response pattern [3]: robust fluorescence responses at low concentrations | resistance of SH431 conferred by the U1406A mutation [4]: inability of the U1406A mutation to confer resistance

NC[C@@H]1O[C@H](O[C@H]2[C@@H](O)[C@H](O[C@@H]3[C@@H](O)[C@H](N)C[C@H](N)[C@H]3O[C@H]3O[C@H](CO)[C@@H](O)[C@H](O)[C@H]3N)O[C@@H]2CO)[C@H](N)[C@@H](O)[C@@H]1O [paromomycin]
detection of O-ribosome inhibition (fluorescence signal) [2]: lack of signal | growth inhibition accompanying the decrease in fluorescence [9]: accompanied by growth inhibition | fluorescence at drug concentrations beyond those that give the peak response [3]: fluorescence decreases significantly | detection of O-ribosome inhibition (fluorescence signal) [3]: able to detect O-ribosome inhibition | dose-dependent fluorescence response pattern [3]: robust fluorescence responses at low concentrations | resistance of SH431 conferred by the U1406A mutation [4]: inability of the U1406A mutation to confer resistance

CN[C@@H]1[C@@H](O)[C@@H](O[C@@H]2[C@@H](O)[C@H](O[C@H]3OC(CN)=CC[C@H]3N)[C@@H](N)C[C@H]2N)OC[C@]1(C)O [sisomicin]
relative ribosome inhibition activity (rank among ten compounds) [3]: strongest ribosome inhibition activity

gentamicin [gentamicins]
response at higher concentrations ([2]; E. coli SH431): Dose-dependent decreases in response | detection of O-ribosome inhibition (fluorescence signal) [2]: able to detect O-ribosome inhibition | relative potency as ribosome inhibitor (rank among four compounds) ([2]; E. coli SH431): most potent ribosome inhibitors | growth inhibition accompanying the decrease in fluorescence [9]: accompanied by growth inhibition | fluorescence at drug concentrations beyond those that give the peak response [3]: fluorescence decreases significantly | detection of O-ribosome inhibition (fluorescence signal) [3]: able to detect O-ribosome inhibition | dose-dependent fluorescence response pattern [3]: robust fluorescence responses at low concentrations
